This is an account of results in patent USRE38425E1, “Semicarbazones having CNS activity and pharmaceutical preparations containing same” (University of Saskatchewan Technologies, Inc., priority 1995, dated 2004).

The test concerns rats. Put plainly: MES screen after oral administration to rats. To be noted: oral administration to rats; for MES screen ED50: time t (h) per compound as in the table.

In the case of `NC(=O)NN=Cc1ccc(OC(=O)c2ccc(Cl)cc2)cc1` [15c], the “MES screen: number of rats out of 4 which were protected” value (“MES screen: number” below) came to 1 (dose 12.5 mg/kg, 0.25 h); 1 (dose 12.5 mg/kg, 1 h); 2 (dose 12.5 mg/kg, 4 h).
Take `NC(=O)NN=Cc1ccc(OCc2ccccc2)cc1` [15d]: the “MES screen: number” value runs as follows: (dose 12.5 mg/kg, 1 h) 1; (dose 12.5 mg/kg, 2 h) 1.
For the compound `NC(=O)NN=Cc1ccc(Oc2ccccc2)cc1` [Compound 4a], under “dose 50 mg/kg, 0.5 h”, the “MES screen 0.5 h: number of rats out of 4 which were protected” value (“MES screen 0.5 h: number” for short) is on record as 3. For the same compound, the “MES screen 1 h: number of rats out of 4 which were protected” value (“MES screen 1 h: number” for short) (dose 50 mg/kg, 1 h) was 4. Moreover, under “dose 50 mg/kg, 2 h”, the “MES screen 2 h: number of rats out of 4 which were protected” value (shortened to “MES screen 2 h: number”) was 4. For the same compound, the “MES screen 4 h: number of rats out of 4 which were protected” value (from here on “MES screen 4 h: number”) (dose 50 mg/kg, 4 h) is listed as 4.
Turning to `NC(=O)NN=Cc1ccc(Oc2ccc(Cl)cc2)cc1` [Compound 4c], the “MES screen 0.25 h: number of rats out of 4 which were protected” value (from here on “MES screen 0.25 h: number”) (dose 50 mg/kg, 0.25 h) came to 4. Also, where the note is “dose 50 mg/kg, 0.5 h”, the “MES screen 0.5 h: number” value was 4. The “MES screen 1 h: number” value (dose 50 mg/kg, 1 h) was 4. The “MES screen 2 h: number” value (dose 50 mg/kg, 2 h) turned out to be 4. Moreover, under “dose 50 mg/kg, 4 h”, the “MES screen 4 h: number” value came to 4.
As for `NC(=O)NN=Cc1ccc(Oc2ccc(Br)cc2)cc1` [Compound 4d], the “MES screen 0.25 h: number” value (dose 50 mg/kg, 0.25 h) came to 1. Moreover, the “MES screen 0.5 h: number” value (dose 50 mg/kg, 0.5 h) stood at 4. Besides, for the setting “dose 50 mg/kg, 1 h”, the “MES screen 1 h: number” value came out at 4. The “MES screen 2 h: number” value (dose 50 mg/kg, 2 h) stood at 4. Moreover, the “MES screen 4 h: number” value (dose 50 mg/kg, 4 h) worked out at 4.
Take `NC(=O)NN=Cc1ccc(Oc2ccc(-c3ccccc3)cc2)cc1` [Compound 4g]: where the note is “dose 12.5 mg/kg, 2 h”, the “MES screen 2 h: number” value came to 3. In addition, under “dose 12.5 mg/kg, 4 h”, the “MES screen 4 h: number” value is 1.
Turning to `COc1ccc(Oc2ccc(C=NNC(N)=O)cc2)cc1` [Compound 4h], the “MES screen 0.5 h: number” value (dose 50 mg/kg, 0.5 h) is reported as 4. Besides, the “MES screen 1 h: number” value (dose 50 mg/kg, 1 h) is listed as 4. For the same compound, for the setting “dose 50 mg/kg, 2 h”, the “MES screen 2 h: number” value is listed as 4. Also, the “MES screen 4 h: number” value (dose 50 mg/kg, 4 h) is recorded as 4.
Take `NC(=O)NN=Cc1ccc(Oc2ccc(Oc3ccccc3)cc2)cc1` [Compound 4i]: where the note is “dose 50 mg/kg, 2 h”, the “MES screen 2 h: number” value is given as 1. Also, the “MES screen 4 h: number” value (dose 50 mg/kg, 4 h) stood at 1.
Consider `N#Cc1ccc(Oc2ccc(C=NNC(N)=O)cc2)cc1` [Compound 4j], for which the “MES screen 0.25 h: number” value (dose 12.5 mg/kg, 0.25 h) was 2. Moreover, the “MES screen 0.5 h: number” value (dose 12.5 mg/kg, 0.5 h) was found to be 4. Under “dose 12.5 mg/kg, 1 h”, the “MES screen 1 h: number” value worked out at 4. For the same compound, the “MES screen 2 h: number” value (dose 12.5 mg/kg, 2 h) is recorded as 4. Also, where the note is “dose 12.5 mg/kg, 4 h”, the “MES screen 4 h: number” value is listed as 4.
With `NC(=O)NN=Cc1ccc(Oc2ccc(F)cc2Br)cc1` [Compound 5m], under “dose 50 mg/kg, 0.25 h”, the “MES screen 0.25 h: number” value is 4. Besides, the “MES screen 0.5 h: number” value (dose 50 mg/kg, 0.5 h) is 4. The “MES screen 1 h: number” value (dose 50 mg/kg, 1 h) is on record as 4. Also, under “dose 50 mg/kg, 2 h”, the “MES screen 2 h: number” value is on record as 4. For the same compound, the “MES screen 4 h: number” value (dose 50 mg/kg, 4 h) stood at 4.
For the compound `CCc1ccc(Oc2ccc(C=NNC(N)=O)cc2)cc1` [Compound 5p], the “MES screen ED50” value came out at 6.48 mg/kg. The “MES screen 0.5 h: number” value (dose 12.5 mg/kg, 0.5 h) came out at 2. Further, the “MES screen 1 h: number” value (dose 12.5 mg/kg, 1 h) is listed as 4. For the same compound, the “MES screen 2 h: number” value (dose 12.5 mg/kg, 2 h) is recorded as 4. The “MES screen 4 h: number” value (dose 12.5 mg/kg, 4 h) stood at 4.
Take `CCCCOc1ccc(Oc2ccc(C=NNC(N)=O)cc2)cc1` [Compound 5u]: the “MES screen ED50” value is 45.81 mg/kg. For the same compound, for the setting “dose 12.5 mg/kg, 4 h”, the “MES screen 4 h: number” value is given as 2.
As for `CCC(=NNC(N)=O)c1ccc(Oc2ccccc2)cc1` [Compound 13e], the “MES screen ED50” value was 23.08 mg/kg. Also, the “MES screen: number” value (dose 30 mg/kg, 0.25 h) is on record as 1. In addition, the “MES screen: number” value (dose 30 mg/kg, 0.5 h) came out at 4. Further, the “MES screen: number” value (dose 30 mg/kg, 1 h) was found to be 3. Besides, for the setting “dose 30 mg/kg, 2 h”, the “MES screen: number” value is recorded as 3.
